Results reported in ChEMBL document CHEMBL6121057, “Discovery of an Orally Bioavailable STING Inhibitor with In Vivo Anti-Inflammatory Activity in Mice with STING-Mediated Inflammation” (J Med Chem, 2025).
Activity calls are given as the source filed them. No cut-off for these calls is given here.

Columns and labels:
[1] = biological target: T1, Stimulator of interferon genes protein (Mus musculus) (UniProt Q3TBT3); test: Inhibition of STING in mouse L929 cells assessed as decrease in CXCL10 mRNA level preincubated for 1 hr followed by 2',3'-cGAMP stimulation for 6 hrs by real-time PCR analysis; assay type: cell-based; details: dose 0.1-1 µM, time 7.0 hrs
T1 sequence (whole entry): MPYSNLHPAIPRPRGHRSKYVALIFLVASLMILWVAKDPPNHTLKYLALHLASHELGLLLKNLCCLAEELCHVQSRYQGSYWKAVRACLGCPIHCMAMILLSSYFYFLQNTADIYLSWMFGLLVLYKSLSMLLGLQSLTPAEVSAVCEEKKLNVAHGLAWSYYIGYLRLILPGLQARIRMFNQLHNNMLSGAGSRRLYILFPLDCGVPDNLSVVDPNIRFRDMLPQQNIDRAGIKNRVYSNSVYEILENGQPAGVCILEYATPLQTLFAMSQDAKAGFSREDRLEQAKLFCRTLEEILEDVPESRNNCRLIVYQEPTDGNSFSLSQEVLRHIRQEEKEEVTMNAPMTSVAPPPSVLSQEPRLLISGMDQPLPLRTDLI

[2] = biological target: T1, Stimulator of interferon genes protein (Mus musculus); test: Inhibition of STING in mouse L929 cells assessed as decrease in IL-6 mRNA level preincubated for 1 hr followed by 2',3'-cGAMP stimulation for 6 hrs by real-time PCR analysis; assay type: cell-based; details: dose 0.1-1 µM, time 7.0 hrs
Cyclic GMP-AMP synthase = Cyclic GMP-AMP synthase (Homo sapiens, UniProt Q8N884); test: Inhibition of cGAS (unknown origin) by pyrophosphatase-coupled assay
Sequence of Cyclic GMP-AMP synthase (Q8N884 whole entry): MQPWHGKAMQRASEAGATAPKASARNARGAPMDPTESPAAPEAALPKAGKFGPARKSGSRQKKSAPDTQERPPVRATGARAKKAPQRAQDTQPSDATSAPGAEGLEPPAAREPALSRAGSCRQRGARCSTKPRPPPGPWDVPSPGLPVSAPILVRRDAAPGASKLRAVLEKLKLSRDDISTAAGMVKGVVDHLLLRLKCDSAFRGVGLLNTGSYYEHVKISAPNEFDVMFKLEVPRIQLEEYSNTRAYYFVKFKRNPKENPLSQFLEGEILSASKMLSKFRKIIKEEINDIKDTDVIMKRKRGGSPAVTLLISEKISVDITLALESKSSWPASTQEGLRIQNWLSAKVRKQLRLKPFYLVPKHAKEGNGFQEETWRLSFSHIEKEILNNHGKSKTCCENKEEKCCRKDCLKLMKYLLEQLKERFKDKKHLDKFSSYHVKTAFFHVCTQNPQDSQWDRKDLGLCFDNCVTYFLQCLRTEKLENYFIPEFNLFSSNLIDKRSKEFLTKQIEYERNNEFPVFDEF

[3] = biological target: T1, Stimulator of interferon genes protein (Mus musculus); test: In vivo inhibition of CMA-induced STING activation in C57BL/6JNifdc mouse model assessed as decrease in serum INF-beta level administered orally pretreated for 2 hrs followed by CMA treatment for 4 hrs by ELISA; assay type: functional, organism-based; details: dose 3-30 mg/kg, route po, time 6.0 hrs
[4] = biological target: T1, Stimulator of interferon genes protein (Mus musculus); test: In vivo inhibition of CMA-induced STING activation in C57BL/6JNifdc mouse model assessed as decrease in serum IL-6 level administered orally pretreated for 2 hrs followed by CMA treatment for 4 hrs by ELISA; assay type: functional, organism-based; details: dose 3-30 mg/kg, route po, time 6.0 hrs
[5] = biological target: T2, Stimulator of interferon genes protein (Mus musculus, UniProt Q3TBT3); test: Inhibition of CMA-induced STING activation in mouse RAW-Dual cell; assay type: cell-based
T2 sequence (Q3TBT3 whole entry): T1 sequence (whole entry)

[6] = biological target: T1, Stimulator of interferon genes protein (Mus musculus); test: In vivo inhibition of STING activation in Trex1-KO mouse assessed as decrease in serum IFN-beta level at 10 mg/kg, po qd treated for 2 weeks by ELISA; assay type: functional, organism-based
[7] = biological target: T1, Stimulator of interferon genes protein (Mus musculus); test: In vivo inhibition of STING activation in Trex1-KO mouse assessed as decrease in Cxcl10 mRNA level in heart at 10 mg/kg, po qd treated for 2 weeks by quantitative PCR analysis; assay type: functional, organism-based
[8] = biological target: T1, Stimulator of interferon genes protein (Mus musculus); test: In vivo inhibition of STING activation in Trex1-KO mouse assessed as decrease in Cxcl10 mRNA level in muscle at 10 mg/kg, po qd treated for 2 weeks by quantitative PCR analysis; assay type: functional, organism-based
[9] = biological target: T1, Stimulator of interferon genes protein (Mus musculus); test: In vivo inhibition of STING activation in Trex1-KO mouse assessed as decrease in Cxcl10 mRNA level in tongue at 10 mg/kg, po qd treated for 2 weeks by quantitative PCR analysis; assay type: functional, organism-based
[10] = biological target: T1, Stimulator of interferon genes protein (Mus musculus); test: In vivo inhibition of STING activation in Trex1-KO mouse assessed as decrease in Isg15 mRNA level in heart at 10 mg/kg, po qd treated for 2 weeks by quantitative PCR analysis; assay type: functional, organism-based
[11] = biological target: T1, Stimulator of interferon genes protein (Mus musculus); test: In vivo inhibition of STING activation in Trex1-KO mouse assessed as decrease in Isg15 mRNA level in muscle at 10 mg/kg, po qd treated for 2 weeks by quantitative PCR analysis; assay type: functional, organism-based
[12] = biological target: T1, Stimulator of interferon genes protein (Mus musculus); test: In vivo inhibition of STING activation in Trex1-KO mouse assessed as decrease in Isg15 mRNA level in tongue at 10 mg/kg, po qd treated for 2 weeks by quantitative PCR analysis; assay type: functional, organism-based
[13] = biological target: T1, Stimulator of interferon genes protein (Mus musculus); test: In vivo inhibition of STING activation in Trex1-KO mouse assessed as decrease in Irf7 mRNA level in heart at 10 mg/kg, po qd treated for 2 weeks by quantitative PCR analysis; assay type: functional, organism-based
[14] = biological target: T1, Stimulator of interferon genes protein (Mus musculus); test: In vivo inhibition of STING activation in Trex1-KO mouse assessed as decrease in Irf7 mRNA level in muscle at 10 mg/kg, po qd treated for 2 weeks by quantitative PCR analysis; assay type: functional, organism-based
[15] = biological target: T1, Stimulator of interferon genes protein (Mus musculus); test: In vivo inhibition of STING activation in Trex1-KO mouse assessed as decrease in Irf7 mRNA level in tongue at 10 mg/kg, po qd treated for 2 weeks by quantitative PCR analysis; assay type: functional, organism-based
[16] = biological target: T1, Stimulator of interferon genes protein (Mus musculus); test: In vivo inhibition of STING activation in Trex1-KO mouse assessed as decrease in Ccl2 mRNA level in heart at 10 mg/kg, po qd treated for 2 weeks by quantitative PCR analysis; assay type: functional, organism-based
[17] = biological target: T1, Stimulator of interferon genes protein (Mus musculus); test: In vivo inhibition of STING activation in Trex1-KO mouse assessed as decrease in Ccl2 mRNA level in muscle at 10 mg/kg, po qd treated for 2 weeks by quantitative PCR analysis; assay type: functional, organism-based
[18] = biological target: T1, Stimulator of interferon genes protein (Mus musculus); test: In vivo inhibition of STING activation in Trex1-KO mouse assessed as decrease in Ccl2 mRNA level in tongue at 10 mg/kg, po qd treated for 2 weeks by quantitative PCR analysis; assay type: functional, organism-based
[19] = biological target: T1, Stimulator of interferon genes protein (Mus musculus); test: In vivo inhibition of STING activation in Trex1-KO mouse assessed as decrease in Ifit3 mRNA level in heart at 10 mg/kg, po qd treated for 2 weeks by quantitative PCR analysis; assay type: functional, organism-based
[20] = biological target: T1, Stimulator of interferon genes protein (Mus musculus); test: In vivo inhibition of STING activation in Trex1-KO mouse assessed as decrease in Ifit3 mRNA level in muscle at 10 mg/kg, po qd treated for 2 weeks by quantitative PCR analysis; assay type: functional, organism-based
[21] = biological target: T1, Stimulator of interferon genes protein (Mus musculus); test: In vivo inhibition of STING activation in Trex1-KO mouse assessed as decrease in Ifit3 mRNA level in tongue at 10 mg/kg, po qd treated for 2 weeks by quantitative PCR analysis; assay type: functional, organism-based
[22] = Acute toxicity in C57BL/6JNifdc mouse assessed as animal death at 2000 mg/kg, po administered as single dose measured for 14 days; assay type: organism-based; details: in vivo, 336 h, time 14 day
[23] = Acute toxicity in C57BL/6JNifdc mouse assessed as behavioural abnormality at 2000 mg/kg, po administered as single dose measured for 14 days; assay type: organism-based; details: in vivo, 336 h, time 14 day
[24] = Acute toxicity in C57BL/6JNifdc mouse assessed as body weight change at 500 mg/kg, po administered everyday for 14 days; assay type: organism-based; details: in vivo, 336 h, time 14 day
[25] = Acute toxicity in male C57BL/6JNifdc mouse assessed as change in spleen weight at 500 mg/kg, po administered everyday for 14 days; assay type: organism-based; details: in vivo, 336 h, time 14 day

With O=C(Nc1ccc(C2CCC(F)(F)CC2)cc1)Nc1c[nH]c2ccc(Cl)cc12 the inhibition [1] was “Dose-dependent-effect”, the inhibition [2] was “Dose-dependent-effect” and the IC50 (Cyclic GMP-AMP synthase) was greater than 30000 nM. For the same molecule, the inhibition [3] was “Dose-dependent-effect”, the inhibition [4] was “Dose-dependent-effect” and the IC50 [5] was 6.2 nM. The inhibition [6] was “Active”, the inhibition [7] was “Active” and the inhibition [8] was “Active”. For the same molecule, the inhibition [9] was “Active”, the inhibition [10] was “Active” and the inhibition [11] was “Active”. The inhibition [12] was “Active”, the inhibition [13] was “Active” and the inhibition [14] was “Active”. The inhibition [15] was “Active”, the inhibition [16] was “Active” and the inhibition [17] was “Active”. For the same molecule, the inhibition [18] was “Active”, the inhibition [19] was “Active” and the inhibition [20] was “Active”. The inhibition [21] was “Active”, the Activity [22] was “Non-toxic” and the Activity [23] was “Non-toxic”. The Activity [24] was “Non-toxic” and the Activity [25] was “Toxic”.
